Tests used:
[1] = Solubility of metal salt ligands in nonanal with added solubilizing agent; assay type: physicochemical; conditions: 25° C.; nonanal with 1:4 CARBOWAX TPEG-900/TERGITOL NP-9
[2] = Batch hydroformylation of dodecene-1 (Examples 13, 14, 18, 19)
[3] = Solubility of TPPMS-Na in various aldehydes with solubilizing agent mixture; assay type: physicochemical; conditions: TERGITOL 24-L-75N/CARBOWAX TPEG-900 (4:1)
Description: The solubilizing agent mixture was employed in a 1:2 weight:weight ratio with the various aldehydes.

[4] = Batch hydroformylation of octene-1 (Examples 14, 15, 19)
Protocol: Each rhodium catalytic precursor solution so prepared was then employed to hydroformylate propylene in a magnetically stirred, 100 mL capacity, stainless steel autoclave which was attached to a gas manifold for introducing gases to the desired partial pressures. The autoclave was also equipped with a pressure calibrator for determining reaction pressure to ±0.01 psia. and a platinum resistance thermometer for determining reactor solution temperatures to ±0.10° C. The reactor was heated externally by two 300 watt heating bands. The reactor solution temperature was controlled by a platinum resistance sensor connected to an external proportional temperature controller for controlling the temperature of the external band heaters.
In each non-aqueous hydroformylation reaction, about 15 milliliters (about 14 grams) of the rhodium catalytic precursor solution so prepared was charged to the autoclave reactor under nitrogen and heated to the reaction temperature employed (as given in Table 1 below). The reactor was then vented down to 5 psig. and a premixed gas mixture of 1:1:1 carbon monoxide:hydrogen:propylene was introduced into the reactor via the gas manifold (partial pressures given in Table 1) and the propylene so hydroformylated.
The hydroformylation reaction rate in gram moles per liter per hour of C4 aldehydes produced was determined from sequential 5 psia. pressure drops in the reactor spanning the nominal operating pressure in the reactor, while the mole ratio of linear (n-butyraldehyde) to branched (2-methylpropionaldehyde) product was measured by gas chromatography and the results are given in Table 1 below.
The same procedure and conditions employed in Example 1 of preparing various rhodium catalytic precursor solutions using rhodium dicarbonyl acetylacetonate, about a 3:1 (wt.:wt. ratio) mixture of Texanol® and CARBOWAX® TPEG-990 (about 25 wt. %) as the solubilizing agent, and a monosulfonated triphenylphosphine sodium salt ligand having the formula [drawing 26] and hydroformylating an olefin was repeated employing the various rhodium complex catalyst precursor solutions and using different alpha olefins as the hydroformylation feedstocks and the reaction conditions as shown in Table 14 below.
The same procedure and conditions employed in Example 1 of preparing various rhodium catalytic precursor solutions using rhodium dicarbonyl acethylacetonate, a monosulfonated triphenylphosphine sodium salt ligand having the formula [drawing 27] and various mixtures of Texanol® and varying amounts (about 15 wt. % in Run No. 1 and about 10 wt. % in Run Nos. 2 to 5) of different added solubilizing agents as given in Table 15 below, and hydroformylating octene-1 was repeated employing the various rhodium complex catalyst precursor solutions and the reaction conditions as shown in Table 15 below.
A comparison of the catalytic activity of aqueous and non-aqueous solutions of monosulfonated triphenylphosphine sodium salt ligand promoted catalysts in hydroformylating various molecular weight alphe-olefins was determined as follows.

[5] = Continuous single pass hydroformylation of butene-1 (Examples 3, 4, 5, 7, 12); conditions: Texanol/PEG-600 10:1
Protocol: Continuous hydroformylation of butene-1 a monosulfonated triphenylphosphine metal salt ligand was conducted in the following manner.
The non-aqueous hydroformylation was conducted in a glass reactor operating in a continuous single pass butene-1 hydroformylation mode. The reactor consisted of a three-ounce pressure bottle submersed in an oil bath with a lass front for viewing. About 20-mL of a freshly prepared rhodium catalytic precursor solution was charged to the reactor with a syringe, after purging the system with nitrogen. […] After closing the reactor, the system was again purged with nitrogen and the oil bath was heated to furnish the desired hydroformylation reaction temperature. The hydroformylation reaction was conducted at a total gas pressure of about 160 psig., the partial pressures of hydrogen, carbon monoxide, and butene-1 being given in Table 3 below, the remainder being nitrogen and aldehyde product.
The flows of the feed gases (carbon monoxide, hydrogen, butene-1 and nitrogen) were controlled individually with mass flow meters and the feed gases dispersed into the precursor solution via microporous stainless steel spargers. The unreacted portion of the feed gases was stripped out with the product C5 aldehydes and the outlet gas analyzed over about 12 days of continuous operation.

[6] = 25 ppm Rh, 100 °C, Ligand/Rhodium 10, H2 20, CO 40 psia, 5.0 ml olefin
[7] = 200 ppm Rh, 100 °C, Ligand/Rhodium 100, H2 10, CO 40 psia, 5.0 ml olefin
[8] = 200 ppm Rh, 100 °C, Ligand/Rhodium 100, H2 100, CO 40 psia, 5.0 ml olefin
[9] = 200 ppm Rh, 120 °C, Ligand/Rhodium 200, H2 20, CO 40 psia, 5.0 ml olefin
[10] = 500 ppm Rh, 70 °C, Ligand/Rhodium 50, H2 20, CO 40 psia, 5.0 ml olefin
[11] = Texanol/TPEG-990 3:1, 100° C., 300 ppm Rh, 8.7 wt. % ligand, 75 psia 4:1 H2:CO
[12] = aqueous (water as solvent), 100° C., 300 ppm Rh, 90 psia 1:1 H2:CO
[13] = heptanal, CARBOWAX PEG-600, 100° C., 200 ppm Rh, 60 psia 2:1 H2:CO, two liquid organic layers
[14] = heptanal, TERGITOL 15-S-3/NIAX PPG-1025/Dimethyl Sulfoxide (4:1:1), 100° C., 200 ppm Rh, 60 psia 2:1 H2:CO
[15] = heptanal, TERGITOL 24-L-75N/CARBOWAX TPEG-990 (4:1), 100° C., 200 ppm Rh, 60 psia 2:1 H2:CO
[16] = heptanal, TERGITOL NP-9, 100° C., 200 ppm Rh, 60 psia 2:1 H2:CO
[17] = non-aqueous (Texanol/Carbowax TPEG990 2.6:1), 100° C., 300 ppm Rh, 90 psia 1:1 H2:CO
[18] = Texanol/Benzonitrile (8:1), 90° C., 200 ppm Rh, 10 wt. % ligand, 75 psia 4:1 H2:CO
[19] = Texanol/Carbowax PEG 150, 90° C., 200 ppm Rh, 10 wt. % ligand, 75 psia 4:1 H2:CO
[20] = Texanol/Dimethyl Sulfoxide (5.5:1), 90° C., 200 ppm Rh, 10 wt. % ligand, 75 psia 4:1 H2:CO
[21] = Texanol/Niax PPG-1025, 90° C., 200 ppm Rh, 10 wt. % ligand, 75 psia 4:1 H2:CO
[22] = Texanol/Sulfolane (8:1), 90° C., 200 ppm Rh, 10 wt. % ligand, 75 psia 4:1 H2:CO
[23] = day 0.9, […], CO 51, H2 59, C4H8 20 psia
[24] = day 2.0, 101 °C, CO 51, H2 47, C4H8 22 psia
[25] = day 3.0, 101 °C, CO 20, H2 53, C4H8 24 psia
[26] = day 4.0, 101 °C, CO 20, H2 30, C4H8 39 psia
[27] = day 5.6, 101 °C, CO 15, H2 64, C4H8 31 psia
[28] = day 5.9 (so in the source), 101 °C, CO 15, H2 63, C4H8 31 psia

O=S(=O)([O-])c1cccc(P(c2ccccc2)c2ccccc2)c1.[Na+]
Metal Salt Solubility [1]: 25 Wt. %
Linear/Branched Aldehyde Mole Ratio [2, 6]: 3.4
Reaction Rate (C13 aldehydes) [2, 6]: 1.37 Gram/Moles L/Hr
Linear/Branched Aldehyde Mole Ratio [2, 7]: 16.9
Reaction Rate (C13 aldehydes) [2, 7]: 1.13 Gram/Moles L/Hr
Linear/Branched Aldehyde Mole Ratio [2, 8]: 4.1
Reaction Rate (C13 aldehydes) [2, 8]: 1.41 Gram/Moles L/Hr
Linear/Branched Aldehyde Mole Ratio [2, 9]: 9.56
Reaction Rate (C13 aldehydes) [2, 9]: 1.24 Gram/Moles L/Hr
Linear/Branched Aldehyde Mole Ratio [2, 10]: 5.5
Reaction Rate (C13 aldehydes) [2, 10]: 0.51 Gram/Moles L/Hr
Linear/Branched Aldehyde Mole Ratio [2, 11]: 10.8
Reaction Rate [2, 11]: 1.04 G moles/L/hr
Linear/Branched Aldehyde Mole Ratio [2, 12]: 43.4
Reaction Rate [2, 12]: 0.03 G Moles/L/Hr
Linear/Branched Aldehyde Mole Ratio [2, 13]: 12.0
Reaction Rate [2, 13]: 0.72 G moles/L/hr
Linear/Branched Aldehyde Mole Ratio [2, 14]: 13.2
Reaction Rate [2, 14]: 0.51 G moles/L/hr
Linear/Branched Aldehyde Mole Ratio [2, 15]: 13.6
Reaction Rate [2, 15]: 0.62 G moles/L/hr
Linear/Branched Aldehyde Mole Ratio [2, 16]: 14.2
Reaction Rate [2, 16]: 0.77 G moles/L/hr
Linear/Branched Aldehyde Mole Ratio [2, 17]: 6.6
Reaction Rate [2, 17]: 4.49 G Moles/L/Hr
TPPMS-Na Solubility at 25 deg. C. ([3]; Butyraldehyde): > 20 Weight Percent
TPPMS-Na Solubility at 25 deg. C. ([3]; Heptanal): 18 Weight Percent
TPPMS-Na Solubility at 25 deg. C. ([3]; Nonanal): 12 Weight Percent
TPPMS-Na Solubility at 25 deg. C. ([3]; Tridecanal): 8 Weight Percent
TPPMS-Na Solubility at 25 deg. C. ([3]; Valeraldehyde): > 20 Weight Percent
Linear/Branched Aldehyde Mole Ratio [4, 18]: 26.6
Reaction Rate (C9 aldehydes) [4, 18]: 0.47 G moles/L/hr
Linear/Branched Aldehyde Mole Ratio [4, 19]: 17.6
Reaction Rate (C9 aldehydes) [4, 19]: 1.12 G moles/L/hr
Linear/Branched Aldehyde Mole Ratio [4, 20]: 18.7
Reaction Rate (C9 aldehydes) [4, 20]: 0.95 G moles/L/hr
Linear/Branched Aldehyde Mole Ratio [4, 21]: 23.9
Reaction Rate (C9 aldehydes) [4, 21]: 0.71 G moles/L/hr
Linear/Branched Aldehyde Mole Ratio [4, 22]: 19.1
Reaction Rate (C9 aldehydes) [4, 22]: 0.98 G moles/L/hr
Linear/Branched Aldehyde Mole Ratio [4, 11]: 14.8
Reaction Rate [4, 11]: 4.17 G moles/L/hr
Linear/Branched Aldehyde Mole Ratio [4, 12]: 40.9
Reaction Rate [4, 12]: 0.11 G Moles/L/Hr
Linear/Branched Aldehyde Mole Ratio [4, 17]: 5.8
Reaction Rate [4, 17]: 2.84 G Moles/L/Hr
Linear/Branched Aldehyde Mole Ratio [5, 23]: 7.68
Rate (C5 aldehydes), daily average [5, 23]: 1.68 gmoles/L/Hr
Linear/Branched Aldehyde Mole Ratio [5, 24]: 9.21
Rate (C5 aldehydes), daily average [5, 24]: 1.81 gmoles/L/Hr
Linear/Branched Aldehyde Mole Ratio [5, 25]: 21.08
Rate (C5 aldehydes), daily average [5, 25]: 1.60 gmoles/L/Hr
Linear/Branched Aldehyde Mole Ratio [5, 26]: 19.83
Rate (C5 aldehydes), daily average [5, 26]: 2.50 gmoles/L/Hr
Linear/Branched Aldehyde Mole Ratio [5, 27]: 23.74
Rate (C5 aldehydes), daily average [5, 27]: 2.05 gmoles/L/Hr
Linear/Branched Aldehyde Mole Ratio [5, 28]: 22.82
Rate (C5 aldehydes), daily average [5, 28]: 2.06 gmoles/L/Hr
